Source: patent publication US20260250626A1, “LACTOBACILLUS SALIVARIUS STRAINS AND USES THEREOF” (CHEMO RESEARCH, S.L., priority 2022, published 2026)
Values joined by “and” are separate entries in the source; they are usually repeats but may differ in a detail not shown here. Identical values can stand only once. Like-named read-outs stand apart in the source and are kept apart here.

What was measured:
[1] = test system: L. salivarius MP98; test: Sensitivity to antibiotics by E-test (MIC); format: cell-based, Ligilactobacillus salivarius; parameters: MIC value: unit not given here
[2] = Recurrent gout trial: blood biochemical parameters (uric acid, lipids, transaminases); format: in vivo, human
[3] = human, in vivo; cited from earlier work
[4] = Recurrent gout trial: gout episodes and intake of gout-related drugs; format: in vivo, human; conditions: control group (allopurinol), individual patients 1-15
[5] = Recurrent gout trial: oxidative stress (OS)-related parameters and NOx in plasma; format: in vivo, human
[6] = control group (allopurinol), individual patients 1-15, serum, after finishing the study
[7] = control group, before starting the study, individual patients 1-15
[8] = drug intake recorded through the study
[9] = control group (allopurinol), individual patients 1-15, plasma, after finishing the study
[10] = control group, before starting the study, individual patients 1-15, normalized per mg protein
[11] = control group, before starting the study, individual patients 1-15, plasma concentration (µmol/L)
[12] = MIC of the antibiotic to L. salivarius MP98, E-test

NC[C@H]1O[C@H](O[C@H]2[C@H](O)[C@@H](O[C@H]3O[C@H](CO)[C@@H](O)[C@H](N)[C@H]3O)[C@H](N)C[C@@H]2N)[C@H](O)[C@@H](O)[C@@H]1O [KAN, kanamycin]
MIC ([1]; Ligilactobacillus salivarius, MIC of the antibiotic to L. salivarius MP98): 128 µg/mL

penicillin
MIC value [1]: 0.25

Oc1ncnc2[nH]ncc12 [allopurinol]
GOT (UI/L) [2, 6]: 20.05 UI/L and 22.63 UI/L and 37.84 UI/L and 37.28 UI/L and 33.57 UI/L and 27.60 UI/L and 37.24 UI/L and 21.94 UI/L and 40.68 UI/L and 41.07 UI/L and 39.21 UI/L and 31.82 UI/L and 32.99 UI/L and 38.57 UI/L and 32.42 UI/L | GPT (UI/L) [2, 6]: 19.97 UI/L and 27.46 UI/L and 44.90 UI/L and 27.61 UI/L (2×) and 43.27 UI/L and 53.45 UI/L and 34.73 UI/L and 27.08 UI/L and 59.99 UI/L and 53.87 UI/L and 35.57 UI/L and 39.40 UI/L and 44.47 UI/L and 33.84 UI/L | Total cholesterol [2, 6]: 172.63 mg/dL and 176.04 mg/dL and 206.72 mg/dL and 196.82 mg/dL and 183.24 mg/dL and 194.32 mg/dL and 176.47 mg/dL and 170.51 mg/dL and 224.95 mg/dL and 199.08 mg/dL and 193.84 mg/dL and 181.94 mg/dL and 178.63 mg/dL and 187.14 mg/dL and 183.02 mg/dL | Triglycerides [2, 6]: 157.81 mg/dL and 153.17 mg/dL and 169.90 mg/dL and 158.47 mg/dL and 165.58 mg/dL and 164.25 mg/dL and 162.81 mg/dL and 165.45 mg/dL and 189.72 mg/dL and 171.63 mg/dL and 154.57 mg/dL and 165.16 mg/dL and 163.83 mg/dL and 160.02 mg/dL and 168.91 mg/dL | Uric acid [2, 6]: 7.11 mg/dl and 7.46 mg/dl and 9.68 mg/dl and 8.87 mg/dl and 7.64 mg/dl and 9.61 mg/dl and 8.69 mg/dl and 7.90 mg/dl and 10.92 mg/dl and 10.87 mg/dl and 9.12 mg/dl (2×) and 8.57 mg/dl and 10.49 mg/dl and 9.38 mg/dl | any parameter, T1 against T2 samples ([2]; control group, 100-300 mg/daily for one year): no differences in any parameter | GOT [2, 7]: 20.94 UI/L and 24.52 UI/L and 38.57 UI/L and 36.71 UI/L and 35.83 UI/L and 25.11 UI/L and 35.37 UI/L and 21.62 UI/L and 42.75 UI/L and 40.28 UI/L and 37.01 UI/L and 30.17 UI/L and 34.88 UI/L and 39.64 UI/L and 30.53 UI/L | GPT [2, 7]: 19.32 UI/L and 25.75 UI/L and 47.78 UI/L and 29.19 UI/L and 42.81 UI/L and 55.07 UI/L and 30.64 UI/L and 25.55 UI/L and 54.98 UI/L and 49.91 UI/L and 37.56 UI/L and 30.07 UI/L and 40.39 UI/L and 45.29 UI/L and 30.37 UI/L | Total cholesterol [2, 7]: 170.45 mg/dl and 179.39 mg/dl and 208.16 mg/dl and 195.37 mg/dl (2×) and 188.31 mg/dl and 192.43 mg/dl and 177.63 mg/dl and 169.04 mg/dl and 229.46 mg/dl and 197.18 mg/dl and 184.41 mg/dl and 176.25 mg/dl and 184.30 mg/dl and 185.19 mg/dl | Triglycerides [2, 7]: 152.07 mg/dL and 151.28 mg/dL and 172.29 mg/dL and 155.83 mg/dL and 166.74 mg/dL and 162.41 mg/dL and 168.02 mg/dL and 162.33 mg/dL and 187.99 mg/dL and 172.25 mg/dL and 160.86 mg/dL and 162.25 mg/dL and 167.27 mg/dL and 162.91 mg/dL and 168.28 mg/dL | Uric acid [2, 7]: 7.03 mg/dl and 7.53 mg/dl and 9.97 mg/dl and 8.44 mg/dl (2×) and 7.56 mg/dl and 9.99 mg/dl and 7.81 mg/dl and 10.64 mg/dl and 11.69 mg/dl and 9.20 mg/dl and 8.24 mg/dl and 10.05 mg/dl and 9.92 mg/dl and 9.06 mg/dl | patients in gout therapy achieving serum urate levels <6 mg/dl (<0.35 mmol/L) [3]: 20-40% | Gout episodes (during study period) [4]: 0 (2×) and 1 (8×) and 2 (4×) and 3 | Gout episodes (9 previous months) ([4]; 9 months before the study (baseline)): 1 (5×) and 2 (8×) and 0 and 3 | Doses Allopurinol [4, 8]: 180 (4×) and 175 (2×) and 174 (2×) and 168 and 178 and 179 (2×) and 172 and 176 and 177 | Doses Colchicin [4, 8]: 0 (2×) and 4 (6×) and 8 (3×) and 2 (2×) and 12 and 6 | Doses ibuprofen and similar AINS [4, 8]: 0 (2×) and 8 and 12 (2×) and 6 (4×) and 16 and 4 (2×) and 1 and 3 (2×) | 8-isoprostaglandin Fzs [5, 9]: 166.1 pg/mL and 162.9 pg/mL and 205.9 pg/mL and 164.8 pg/mL and 175.0 pg/mL and 192.4 pg/mL and 204.7 pg/mL and 165.2 pg/mL and 205.1 pg/mL and 207.1 pg/mL and 195.9 pg/mL and 164.5 pg/mL and 186.3 pg/mL and 191.9 pg/mL and 175.8 pg/mL | AOPPs [5, 9]: 54.87 µmol/L and 57.96 µmol/L and 66.12 µmol/L and 58.27 µmol/L and 62.35 µmol/L and 64.76 µmol/L and 60.56 µmol/L and 57.71 µmol/L and 65.70 µmol/L and 63.68 µmol/L and 60.94 µmol/L and 59.37 µmol/L and 61.97 µmol/L and 64.14 µmol/L and 59.82 µmol/L | AOPPs (nmol/mg protein) [5, 9]: 0.72 nmol/mg protein and 0.75 nmol/mg protein (2×) and 0.83 nmol/mg protein (2×) and 0.76 nmol/mg protein (2×) and 0.78 nmol/mg protein (2×) and 0.80 nmol/mg protein (2×) and 0.77 nmol/mg protein and 0.82 nmol/mg protein and 0.81 nmol/mg protein (2×) | MDA [5, 9]: 1.78 μmol/L and 1.83 μmol/L and 2.37 μmol/L and 1.84 μmol/L (2×) and 2.14 μmol/L and 2.09 μmol/L and 1.81 μmol/L (2×) and 2.29 μmol/L and 2.22 μmol/L and 2.01 μmol/L and 1.74 μmol/L and 2.27 μmol/L and 2.08 μmol/L | NOx [5, 9]: 21.32 µmol/L and 19.26 µmol/L and 23.87 µmol/L and 22.75 µmol/L and 21.13 µmol/L and 24.97 µmol/L and 24.59 µmol/L and 22.33 µmol/L and 26.43 µmol/L and 28.07 µmol/L and 24.07 µmol/L and 24.81 µmol/L and 25.79 µmol/L and 25.95 µmol/L and 22.68 µmol/L | Nitrate [5, 9]: 16.92 µmol/L and 16.86 µmol/L and 28.79 µmol/L and 19.85 µmol/L and 21.04 µmol/L and 23.87 µmol/L and 22.81 µmol/L and 17.40 µmol/L and 26.73 µmol/L and 27.47 µmol/L and 22.10 µmol/L and 17.49 µmol/L and 21.36 µmol/L and 25.27 µmol/L and 20.31 µmol/L | Nitrite [5, 9]: 1.82 µmol/L and 1.87 µmol/L and 2.29 µmol/L and 1.67 µmol/L and 2.03 µmol/L and 2.24 µmol/L and 2.27 µmol/L and 1.84 µmol/L and 2.02 µmol/L and 2.22 µmol/L and 2.19 µmol/L and 1.77 µmol/L and 2.26 µmol/L and 2.20 µmol/L and 1.88 µmol/L | SH groups [5, 9]: 429.5 µmol/L and 423.6 µmol/L and 448.1 µmol/L and 429.7 µmol/L and 435.4 µmol/L and 430.2 µmol/L and 431.0 µmol/L and 426.3 µmol/L and 451.8 µmol/L and 436.7 µmol/L and 436.1 µmol/L and 433.4 µmol/L and 436.8 µmol/L and 432.7 µmol/L and 431.3 µmol/L | SH groups (nmol/mg protein) [5, 9]: 5.19 nmol/mg protein and 5.21 nmol/mg protein and 5.72 nmol/mg protein and 5.41 nmol/mg protein (2×) and 5.42 nmol/mg protein and 5.36 nmol/mg protein and 5.23 nmol/mg protein and 6.02 nmol/mg protein and 5.59 nmol/mg protein and 5.48 nmol/mg protein and 5.47 nmol/mg protein and 5.43 nmol/mg protein and 5.74 nmol/mg protein and 5.52 nmol/mg protein | TBARM [5, 9]: 22.89 µmol/L and 23.48 µmol/L and 29.92 µmol/L and 27.01 µmol/L and 27.83 µmol/L and 27.59 µmol/L and 29.04 µmol/L and 25.67 µmol/L and 25.91 µmol/L and 28.75 µmol/L and 26.32 µmol/L and 24.81 µmol/L and 27.09 µmol/L and 28.27 µmol/L and 24.86 µmol/L | 8-isoprostaglandin F2α [5, 7]: 161.7 pg/mL and 209.0 pg/mL and 162.6 pg/mL and 177.1 pg/mL and 195.2 pg/mL and 207.3 pg/mL and 160.9 pg/mL and 202.4 pg/mL and 207.5 pg/mL and 194.8 pg/mL and 166.1 pg/mL and 184.9 pg/mL and 195.7 pg/mL and 174.4 pg/mL and 162.2 pg/mL | MDA [5, 7]: 1.86 μmol/L and 2.41 μmol/L (2×) and 1.78 μmol/L and 2.02 μmol/L and 1.99 μmol/L and 1.92 μmol/L and 1.79 μmol/L and 2.17 μmol/L and 2.09 μmol/L and 1.83 μmol/L and 2.19 μmol/L and 2.00 μmol/L and 1.87 μmol/L and 1.74 μmol/L | NOx [5, 7]: 19.01 µmol/L and 18.98 µmol/L and 25.67 µmol/L and 21.48 µmol/L and 21.66 µmol/L and 25.18 µmol/L and 24.07 µmol/L and 20.01 µmol/L and 28.23 µmol/L and 27.09 µmol/L and 25.56 µmol/L and 22.29 µmol/L and 26.86 µmol/L and 24.48 µmol/L and 23.16 µmol/L | Nitrate [5, 7]: 16.85 µmol/L and 16.77 µmol/L and 31.12 µmol/L and 19.64 µmol/L and 22.48 µmol/L and 23.99 µmol/L and 20.29 µmol/L and 16.93 µmol/L and 27.46 µmol/L and 28.65 µmol/L and 20.92 µmol/L and 17.03 µmol/L and 22.52 µmol/L and 24.81 µmol/L and 20.02 µmol/L | Nitrite [5, 7]: 1.73 μmol/L and 1.81 μmol/L and 2.41 μmol/L and 1.79 μmol/L and 2.12 μmol/L and 2.11 μmol/L (2×) and 2.06 μmol/L and 1.71 μmol/L and 2.14 μmol/L (2×) and 2.27 μmol/L and 1.84 μmol/L and 2.21 μmol/L and 1.92 μmol/L | TBARM [5, 7]: 22.93 µmol/L and 31.02 µmol/L and 24.76 µmol/L and 26.91 µmol/L and 28.14 µmol/L and 27.31 µmol/L and 24.97 µmol/L and 27.28 µmol/L and 27.99 µmol/L and 27.43 µmol/L and 23.07 µmol/L and 28.11 µmol/L and 28.00 µmol/L and 25.79 µmol/L and 23.16 µmol/L | AOPPs [5, 10]: 0.74 nmol/mg protein and 0.83 nmol/mg protein and 0.75 nmol/mg protein (2×) and 0.78 nmol/mg protein and 0.81 nmol/mg protein (2×) and 0.77 nmol/mg protein (2×) and 0.73 nmol/mg protein (2×) and 0.84 nmol/mg protein and 0.82 nmol/mg protein and 0.79 nmol/mg protein and 0.80 nmol/mg protein | SH groups [5, 10]: 5.23 nmol/mg protein and 5.84 nmol/mg protein and 5.37 nmol/mg protein and 5.44 nmol/mg protein and 5.45 nmol/mg protein and 5.39 nmol/mg protein and 5.11 nmol/mg protein and 6.10 nmol/mg protein and 5.54 nmol/mg protein and 5.59 nmol/mg protein and 5.42 nmol/mg protein and 5.48 nmol/mg protein and 5.79 nmol/mg protein and 5.51 nmol/mg protein and 5.14 nmol/mg protein | AOPPs [5, 11]: 57.87 µmol/L and 65.77 µmol/L and 59.02 µmol/L and 62.29 µmol/L and 64.83 µmol/L and 60.36 µmol/L and 58.95 µmol/L and 65.81 µmol/L and 63.52 µmol/L and 61.07 µmol/L and 59.50 µmol/L and 61.92 µmol/L and 64.34 µmol/L and 59.71 µmol/L and 55.91 µmol/L | SH groups [5, 11]: 425.7 μmol/L and 442.0 μmol/L and 427.9 μmol/L and 441.5 μmol/L and 432.7 μmol/L (2×) and 433.9 μmol/L and 425.9 μmol/L and 448.3 μmol/L and 434.9 μmol/L (2×) and 438.4 μmol/L and 435.1 μmol/L and 432.2 μmol/L and 426.6 μmol/L

Cc1nc(-c2ccc(OCC(C)C)c(C#N)c2)sc1C(=O)O [febuxostat]
patients in gout therapy achieving serum urate levels <6 mg/dl (<0.35 mmol/L) [3]: 45-67%

gentamycin
MIC value [1, 12]: 2

virginiamycin
MIC value [1, 12]: 0.25
